Three compounds from PMC3477264 (ACS chemical biology, 2012) can be followed below.

Molecules are shown by their SMILES.

For test [1], the target named is T1, cyclodiphosphate synthase IspF (Escherichia coli, UniProt P62617).
T1 sequence (P62617 1-159): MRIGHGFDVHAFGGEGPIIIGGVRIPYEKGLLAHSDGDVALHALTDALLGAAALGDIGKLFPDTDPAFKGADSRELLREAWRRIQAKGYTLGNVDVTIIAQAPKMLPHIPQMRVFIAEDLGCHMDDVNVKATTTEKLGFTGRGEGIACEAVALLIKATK
In words: HPLC-based assay, […] inhibition of the IspF-MEP complex at […] FDP. It is filed as biochemical. The following applies: read-out: % inhibition at 500 μM.

In test [2] the target is T1, cyclodiphosphate synthase IspF. As to the kind of experiment: HPLC-based assay of CMP formation by purified IspF. It is filed as biochemical.

Turning to `CC(C)=CCC/C(C)=C/CC/C(C)=C/CO[P@@](=O)(O)OP(=O)(O)O` (stereo in doubt) [FDP, farnesyl diphosphate], the inhibition at 500 µM in test [1] was 43%.

Turning to `C[C@](O)(CO)[C@H](O)CO` [ME, 2C-methyl-D-erythritol], in test [2], half-maximal activity (AC50) was put at 106 ± 14 µM.

Consider `C[C@](O)(CO)[C@H](O)COP(=O)(O)O` [MEP, 2C-methyl-D-erythritol 4-phosphate], for which, in test [2], half-maximal activity (AC50) was put at 133 ± 33 µM.

As usually defined, the inhibition is the relative decrease from the control value, in per cent. By AC50 is commonly meant the midpoint of the concentration-response curve, whichever way the signal moves. Low values mean greater potency, high ones weaker potency.
